Experimental data taken from patent US11820745B2, “PKC-activating compounds for the treatment of neurodegenerative diseases” (Synaptogenix, Inc., priority 2008, dated 2023).
Like-named read-outs stand apart in the source and are kept apart here.

Key:
[1] = tested on: TACE; assay: TACE assay in rat primary neurons; type: cell-based; conditions: primary neurons from rat hippocampus; FIGS. 9b, c
Experimental: (§1) TACE Assay. TACE was measured by incubating 5 μl cell homogenate, 3 μl buffer (50 mM Tris-HCl 7.4 plus 25 mM NaCl plus 4% glycerol), and 1 of 100 μM TACE substrate IV (Aβz-LAQAVRSSSR-DPa) (Calbiochem) for 20 min at 37° in 1.5-ml polypropylene centrifuge tubes (Jin et al., Anal Biochem. 2002; 302: 269-75). The reaction was stopped by cooling to 4° C. The samples were diluted to 1 ml and the fluorescence was rapidly measured (ex=320 nm, em=420 nm) in a Spex Fluorolog 2 spectrofluorometer.

[2] = tested on: Aβ; assay: Aβ levels in N2a neuroblastoma cells transfected with human APPSwe/PSID (Aβ1-42 ELISA); type: cell-based, mouse; conditions: 24 h incubation, various concentrations
Experimental: (§2) Cell culture. Rat hippocampal H19-71GF-IR cells (ATCC, Manassas, Va.) were plated onto poly-L-lysine coated plates and grown at 35° C. in DMEM/10% FCS for several days until about 50% coverage was obtained. The cells were then induced to differentiate into a neuronal phenotype by replacing the medium with 5 ml N2 medium containing 10 ng/ml basic fibroblast growth factor at 39° C. and grown in T-75 flasks at 37° C. Human SH-SY5Y neuroblastoma cells (ATCC) were cultured in 45% F12K/45% MEM/10% FCS. Mouse N2A neuroblastoma cells were cultured in DMEM/10% FCS without glutamine. Rat hippocampal neurons from 18-day-old embryonic
(§3) AB Measurement and Cell Viability Assay. Aβ was measured using an Aβ1-42 human fluorimetric ELISA kit (Invitrogen) according to the manufacturer's instructions. Results were measured in a Biotek Synergy HT microplate reader. AlamarBlue and CyQuant NF (Invitrogen) according to the manufacturer's instructions.
To measure the effects of PKCε activation on Aβ production, we used mouse neuro2a (N2a) neuroblastoma cells transfected with human APPSwe/PSID, which produce large quantities of Aβ. Petanceska et al., J Neurochem. 1996; 74: 1878-84. […] With bryostatin, which activates PKC by binding to the diacylglycerol-binding site, the inhibition was biphasic, with concentrations of 20 nM or higher producing no net effect. This may be explained by the ability of this class of PKC activators to downregulate PKC when used at high concentrations.

[3] = tested on: TACE; assay: TACE assay in N2a mouse neuroblastoma cells; type: cell-based; conditions: FIG. 9a
Experimental: as §1

[4] = tested on: PKC; assay: PKC activity time course in rat H19-7/IGF-IR hippocampal cells; type: cell-based
Experimental: as §2
(§4) Protein kinase C assay. Rat hippocampal cells were cultured and scraped in 0.2 ml homogenization buffer (20 triM Tris-HCl, pH 7.4, 50 mM NaF, 1 μg/ml leupeptin, and 0.1 mM PMSF) and homogenized by sonication in a Marsonix micro-probe sonicator (5 see, 10W). To measure PKC, 10 ul of cell homogenate or purified. PKC isozyme (purchased from Calbiochem) was incubated for 15 min at 37° C. in the presence of 10 μM histones, 4.89 mM CaCl2, 1.2 μg/μl phosphatidyl-L-serine, 0.18 μg/μl 1,2-dioctanoyl-sn-glycerol, 10 mM MgCl2, 20 mM HEPES (pH 7.4), 0.8 mM EDTA, 4 mM EGTA, 4% glycerol, 8 μg/ml aprotinin, 8 μg/ml leupeptin, and 2 mM benzamidine. 0.5 μCi [^γ-32P]ATP was added and ^32P-phosphoprotein formation was measured by adsorption onto phosphocellulose as described previously. Nelson and Alkon, J. Neurochemistry. 1995; 65: 2350-57. For measurements of activation by BR-101 (DCP-LA) and similar compounds, PKC activity was measured in the absence of diacylglycerol and phosphatidyl serine, as described by Kanno et al., and PKC δ, ε, η, and μ were measured in the absence of added EGTA and CaCl2, as described by Kanno et al., J. Lipid Res. 2006; 47: 1146-50. Low concentrations of Ca^2+ are used because high Ca^2+ interacts with the PKC phosphatidylserine binding site and prevents activation. For measurements of bryostatin activation, 1,2-diacylglycerol was omitted unless otherwise stated.

[5] = tested on: rats; conditions: cited from earlier work
[6] = tested on: a-secretase; conditions: human fibroblasts, cited from earlier work
[7] = tested on: Endothelin-converting enzyme (ECE); assay: ECE assay in SH-SY5Y neuroblastoma cells; type: cell-based, human; conditions: bryostatin 0.27 nM, BR-101 1 μM, BR-111 1 μM; FIG. 10
Experimental: ECE assay. SH-S757 neuroblastoma cells were incubated with bryostatin (0.27 nM), BR-101 (PCP-LA) (1 μM), and BR-111 (DHA-CP6) (1 μM). Endothelin-converting enzyme (ECE) was measured fluorimetrically using the method of Johnson and Ahn, Anal. Biochem. 2000; 286: 112-118. A sample of cell homogenate (20 μl) was incubated in 50 mM MES-KOH, pH 6.0, 0.01% C12E10 (polyoxyethylene-10-tauryl ether), and 15 μM McaBK2. (7-Methoxycournarin-4-acetyl [Ala7-(2,4-Dinitrophenyl)Lys9]-bradykinin trifluoroacetate salt) (Sigma-Aldrich). After 60 min at 37° C., the reaction was quenched by adding trifluoroacetic acid to 0.5%. The sample was diluted to 1.4 ml with water and the fluorescence was measured at ex=334 nm, em=398 nm.

[8] = tested on: SH-SY5Y neuroblastoma cells; assay: Cell survival and proliferation (alamar Blue, CyQuant) in SH-SY5Y neuroblastoma cells; type: cell-based, human; conditions: alamar Blue; FIG. 11a
Experimental: as §3

[9] = target: T1, PKCε (Homo sapiens, UniProt Q02156); assay: Protein kinase C assay, purified/recombinant PKC epsilon (32P incorporation into histones); type: biochemical; conditions: for activation of purified PKCε / concentration needed to activate PKC, times lower than for BR-101 (DCP-LA): FIG. 3
T1 construct: purchased Calbiochem
T1 sequence (Q02156 1-737): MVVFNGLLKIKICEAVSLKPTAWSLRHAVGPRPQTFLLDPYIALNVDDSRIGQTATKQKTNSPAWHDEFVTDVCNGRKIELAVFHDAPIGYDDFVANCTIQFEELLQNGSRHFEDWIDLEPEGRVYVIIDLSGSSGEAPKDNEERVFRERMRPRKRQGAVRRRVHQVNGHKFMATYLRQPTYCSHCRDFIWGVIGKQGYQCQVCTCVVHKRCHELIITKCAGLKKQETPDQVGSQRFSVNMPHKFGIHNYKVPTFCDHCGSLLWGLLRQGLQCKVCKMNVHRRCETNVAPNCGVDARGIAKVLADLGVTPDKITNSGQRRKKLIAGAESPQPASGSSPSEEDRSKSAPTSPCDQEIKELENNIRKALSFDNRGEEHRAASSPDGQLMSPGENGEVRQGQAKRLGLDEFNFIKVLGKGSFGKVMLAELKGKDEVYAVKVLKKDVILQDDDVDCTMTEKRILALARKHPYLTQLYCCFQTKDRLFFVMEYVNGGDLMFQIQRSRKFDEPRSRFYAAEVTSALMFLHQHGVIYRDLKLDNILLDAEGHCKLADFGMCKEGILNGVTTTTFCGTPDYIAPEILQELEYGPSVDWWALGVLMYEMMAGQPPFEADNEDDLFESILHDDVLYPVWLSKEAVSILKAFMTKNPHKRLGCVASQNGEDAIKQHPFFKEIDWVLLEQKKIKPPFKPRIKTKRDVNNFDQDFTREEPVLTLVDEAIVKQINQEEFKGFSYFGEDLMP
Experimental: Protein kinase C assay. Recombinant PKC (1 ng of alpha or epsilon isofonn) was mixed with the BR-101 (UCP-LA) in the presence of 10 micromoiar histones, 5 mM CaCl2, 1.2 μg/μl phosphatidyl-L-serine, 0.18 μg/μl 1,2-dioctanoyl-sn-glycerol (DAG), […], […] (pH 7.4), 0.8 tnIVI EDTA, 4 mM EGTA, 4% glycerol, 8 μg/ml aprotinin, 8 μ/ml leupeptin, and 2 mM benzamidine. 0.5 micro Ci [^y32P]ATP was added. The incubation mixture was incubated for 15 min at 37 degrees in a total volume of 10 microliters. The reaction was stopped by spotting the reaction mixtures on 1×2 cm strips of cellulose phosphate paper (Whatman P81) and immediately washing twice for 1 hr in 0.5% H3PO4. The cellulose phosphate strips were counted in a scintillation counter. In some experiments, phosphatidylserine, diacylglycerol, and/or calcium were removed.
as §4
To determine their PKC isozyme specificity, the new compounds were preincubated with purified PKC for five minutes and the PKC activity was measured radiometrically.

[10] = tested on: PKC; conditions: read-out: affinity for PKC, ECS50; cited from earlier work

## CCC/C=C/C=C/C(=O)O[C@H]1/C(=C/C(=O)OC)C[C@H]2C[C@H]([C@@H](C)O)OC(=O)C[C@H](O)C[C@@H]3C[C@H](OC(C)=O)C(C)(C)[C@](O)(C[C@@H]4C/C(=C/C(=O)OC)C[C@H](/C=C/C(C)(C)[C@]1(O)O2)O4)O3 [bryostatin]
[1]
  TACE activity: small increases
[2]; FIG. 7a
  levels of intracellular Aβ: markedly reduced
[2]; FIG. 7b
  levels of secreted Aβ: markedly reduced
[3]
  TACE activity: small increases
[4]; 0.04 nM and 0.2 nM
  downregulation of PKC following activation: 20%
  time by which PKC downregulation returned to baseline: ≤ 24 h
[4]; 0.04 nM and 0.2 nM, data not shown
  activation of PKC: 2 fold
[4]; data not shown
  PKC activity (downregulation) at 8 h: at or near the baseline
[5]
  rate of learning: dramatically increase the rate of learning
[6]; 10 pM
  increase in initial rate of a-secretase activity: 16 fold
[6]; 100 pM
  increase in initial rate of a-secretase activity: 132 fold
[7]
  ECE activity: sustained increase
[8]
  effect on cell survival: no effect

## CCCCCC1CC1CC1CC1CCCCCCCCO (stereo not drawn) [BR-105, linoleic alcohol dicyclopropane]
[9]; FIG. 4
  effect on PKC: little or no effect

## CCCCCCCCCCCCCC(=O)O[C@@H]1[C@@H](C)[C@@]2(O)[C@@H](C=C(CO)C[C@]3(O)C(=O)C(C)=C[C@@H]23)[C@@H]2C(C)(C)[C@]12OC(C)=O [phorbol 12-myristate 13-acetate]
[10]
  EC50: […]
[4]; data not shown
  PKC activity (downregulation) at 8 h: strongly downregulated

## epoxystearic acid [BR-116]
[9]; FIG. 4
  effect on PKC: little or no effect

## CCC1CC1CC1CC1CC1CC1CC1CC1CC1CC1CCCC(=O)OC (stereo not drawn) [BR-114]
[9]
  activation of purified PKCε: activated purified PKCε to a similar extent
  concentration needed to activate PKC, times lower than for BR-101 (DCP-LA): approx. 100 times

## CCCCCC1CC1CC1CC1CC1CC1CC1CC1CCCC(=O)OC (stereo not drawn) [BR-115]
[9]
  activation of purified PKCε: activated purified PKCε to a similar extent
  concentration needed to activate PKC, times lower than for BR-101 (DCP-LA): approx. 100 times

## CCC1CC1CC1CC1CC1CC1CCCCCCCCO (stereo not drawn) [BR-104, linolenic alcohol tricyclopropane]
[9]; FIG. 4
  effect on PKC: little or no effect

## CCCCC[C@H]1O[C@H]1CC1CC1CCCCCCCC(=O)OC (stereo partly drawn) [BR-109, vernolic acid methyl ester cyclopropane]
[9]; at concentrations above 1 μM, FIG. 4
  effect on PKCε: inhibited

## CCCCCC1OC1C/C=C\CCCCCCCC(=O)OC (stereo in doubt) [BR-117, vernolic acid methyl ester]
[9]; FIG. 4
  effect on PKC: little or no effect
